The values below come from patent publication US20130237609A1, “CELLULOSE DERIVATIVES FOR ENHANCING BIOAVAILABILITY OF FLAVONOIDS” (priority 2011, published 2013).

≈ marks a conversion by molar mass, not a printed value. Read-outs that look alike come from different tables or passages of the source.

Data set [1] can be described thus: Contact angle of water on spin-coated films. It counts as physicochemical. The settings on record: Cur/polymer weight ratio, PVP samples: initial value.
Data set [2] can be described thus: Curcumin stability in pH 7.4 buffer, HPLC after EtOH dilution. The settings on record: 24 h, room temperature, EtOH dilution before measurement. It counts as physicochemical. The method, then:
[…]. Samples were incubated at room temperature for indicated times. After incubation, the reaction mixtures were diluted by 1 mL of ethanol and the UV-Vis absorption of the diluted solution was measured; then the diluted solution was filtered through a 1 μm PVDF membrane filter, and the filtrate was analyzed by HP LC. HPLC was performed with an Agilent 1200 series liquid chromatograph equipped with a 1200 quaternary pump, a variable wavelength UV/Vis detector and an Eclipse XDB-C18 column (150×4.6 mm, 5 μm particle size) using the mixture of 40% THF, 60% water and 1% acetic acid (pH 3.0) as mobile phase.
(Wang 1997). Such chemical degradation is likely the result of retro-aldol reactions. (Priyadarsini 2009). […] This experiment differs from the literature report in that the inventors use ethanol to dilute the incubated aqueous curcumin solution just prior to measurement, to make sure that any crystallized curcumin is re-dissolved for detection. […]

The nature of data set [3]: Curcumin stability in buffer, UV-Vis after EtOH dilution. It counts as physicochemical.
A short description of data set [4]: Curcumin release profile, pH 6.8 buffer. It counts as physicochemical. Particulars: pH 6.8, UV-Vis.
Data set [5] can be described thus: Curcumin release profile, pH 1.2 buffer. It counts as physicochemical. The settings on record: polymer label = amorphous blend of curcumin with that polymer.
For data set [6] the following is noted: cited from earlier work.
For data set [7] the following is noted: formulated as nanocrystals, solid dispersion in HPMCAS, nanoemulsion (Onoue 2010); cited from earlier work.
The conditions of data set [8]: with piperine as metabolic inhibitor, in humans; cited from earlier work.
For data set [9] the following is noted: pH 7.4 buffer; cited from earlier work.
Data set [10] can be described thus: Curcumin stability in buffer (degradation plus crystallization), UV-Vis, no EtOH added. The settings on record: after 5 h, no EtOH dilution.

The term Solubility denotes the concentration that dissolves in the medium under given conditions. Turning to `COc1cc(/C=C/C(=O)CC(=O)/C=C/c2ccc(O)c(OC)c2)ccc1O` [Curcumin, 1,7-bis(4-hydroxy-3-methoxyphenyl)-1,6-heptadiene-3,5-dione], the “contact angle of water on film” value in data set [1] came out at 102 °. The “curcumin degraded (HPLC, curcumin peak RT 6.0 min)” value in data set [2] turned out to be 36%. Also, the “Cur degraded (UV-Vis)” value came out at 7% in data set [3] (pH 6.8, after 5 h, EtOH dilution); 16% in [3] (pH 7.4, after 5 h, EtOH dilution); 33% in [3] (pH 7.4 buffer, 24 h, EtOH dilution before measurement). In addition, in data set [4], the “Cur release concentration” value is “below the UV/Vis detection limit”. Moreover, the “dissolution” value in data set [5] is listed as “virtually no dissolution”. Moreover, in data set [6], the Solubility was 3 µg/mL (≈ 8.14 µM). In addition, the “improvement of oral bioavailability of curcumin” value in data set [7] is given as 9-16 fold. The “improvement of curcumin oral bioavailability” value in [8] is listed as “up to 20 fold”. Besides, the half-life of curcumin in data set [9] was 5.4 min. The entries for the “curcumin remained in solution” value in [10] (pH 6.8 buffer) and in data set [10] (pH 7.4 buffer) were approximately 44% and “around 40%”, respectively.

`O=c1oc2c(O)c(O)cc3c(=O)oc4c(O)c(O)cc1c4c23` [Ellagic Acid]: in data set [6], the Solubility is 10 µg/mL (≈ 33.1 µM).

For the compound `O=c1c(O)c(-c2ccc(O)c(O)c2)oc2cc(O)cc(O)c12` [Quercetin], in [6], the Solubility is 0.4 µg/mL (≈ 1.32 µM).

Turning to `Oc1ccc(C=Cc2cc(O)cc(O)c2)cc1` [Resveratrol], in data set [6], the Solubility was less than 0.1 µg/mL.

With `COC1=CC(=O)C[C@@H](C)[C@]12Oc1c(Cl)c(OC)cc(OC)c1C2=O` [griseofulvin], the figures for the Solubility in the data set “physchem” (solubility of crystalline griseofulvin) and in “physchem” (solubility of griseofulvin in the polymer matrix) were 12 µg/mL (≈ 34 µM) and not above 30000 µg/mL, respectively.
